# From PubChem BioAssay AID1671246
# Biological target: Casein kinase I isoform gamma-1 (Homo sapiens) (UniProt Q9HCP0)
# Assay: inhibition of human CK1 gamma 1 activity – biochemical, Z'-LYTE, FRET, protease-coupled, direct format, dose response (AID 1671246)
# Conditions: recombinant CSNK1G1
# Chain of Casein kinase I isoform gamma-1 (Homo sapiens) (Q9HCP0 whole entry, looked up, canonical isoform): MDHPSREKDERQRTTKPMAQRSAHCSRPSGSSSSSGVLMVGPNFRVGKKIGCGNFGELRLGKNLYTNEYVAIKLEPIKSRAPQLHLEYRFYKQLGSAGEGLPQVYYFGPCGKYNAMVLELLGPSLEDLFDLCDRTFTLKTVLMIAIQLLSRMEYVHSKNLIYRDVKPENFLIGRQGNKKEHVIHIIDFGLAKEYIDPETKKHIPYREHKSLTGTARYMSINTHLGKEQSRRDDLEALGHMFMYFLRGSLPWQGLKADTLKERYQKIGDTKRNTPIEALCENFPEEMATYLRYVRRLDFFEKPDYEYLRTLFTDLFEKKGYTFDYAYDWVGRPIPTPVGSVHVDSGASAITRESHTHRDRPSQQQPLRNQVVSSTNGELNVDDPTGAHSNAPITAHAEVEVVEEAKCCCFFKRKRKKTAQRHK
compound,measurement,value
CN1C(=O)C2(Cc3cn(C45CC67SSC(CO)(C(=O)N6C4Nc4ccccc45)N(C)C7=O)c4ccccc34)SSC1(CO)C(=O)N2C (stereo unspecified),IC50,109 nM
